Measured values as given in the supplement of paper PMC10307832.

Legend:
Test in all cases: relative viability (nuclei count vs DMSO), 5 days (fraction); higher = more cells survive
[1] = test system: BEN
Procedure, shortened: (§1)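 The day after seeding in 1536-well plates, lung cancer cell lines were treated by pin tool with a single drug, or with a fixed anchor-drug dose together with five library-drug doses (not always all listed) in √10 steps. After 5 days, a combined fix-and-stain solution (final 0.05% Triton X-100, 1% formaldehyde, 1 ug/ml Hoechst) was added. Nuclei counted on 4× images gave relative viability as treated counts over vehicle counts, reported as the median of duplicate plates.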

[2] = test system: EKVX
Procedure, shortened: as §1

[3] = test system: HARA
Procedure, shortened: as §1

[4] = test system: HCC-366
Procedure, shortened: as §1

[5] = test system: HCC-827
Procedure, shortened: as §1

[6] = test system: LOU-NH91
Procedure, shortened: as §1

[7] = test system: NCI-H1355
Procedure, shortened: as §1

[8] = test system: NCI-H1437
Procedure, shortened: as §1

[9] = test system: NCI-H1734
Procedure, shortened: as §1

[10] = test system: NCI-H1792
Procedure, shortened: as §1

[11] = test system: NCI-H1993
Procedure, shortened: as §1

[12] = test system: NCI-H2009
Procedure, shortened: as §1

[13] = test system: NCI-H2087
Procedure, shortened: as §1

[14] = test system: NCI-H2170
Procedure, shortened: as §1

[15] = test system: NCI-H2405
Procedure, shortened: as §1

[16] = test system: NCI-H647
Procedure, shortened: as §1

[17] = test system: NCI-H661
Procedure, shortened: as §1

[18] = test system: SK-LU-1
Procedure, shortened: as §1

[19] = test system: SK-MES-1
Procedure, shortened: as §1

O=c1cc(-c2cccc3c2Sc2ccccc2S3)oc(N2CCOCC2)c1 + C[C@@H](Oc1cc(-c2cnn(C3CCNCC3)c2)cnc1N)c1c(Cl)ccc(F)c1Cl [Crizotinib] (partner 1 µM)
relative viability ([1]; first compound 0.08 µM): 0.925
relative viability ([1]; first compound 0.253 µM): 1.02
relative viability ([1]; first compound 0.8 µM): 1.1
relative viability ([1]; first compound 2.53 µM): 0.85
relative viability ([1]; first compound 8 µM): 1.14
relative viability ([2]; first compound 0.08 µM): 0.896
relative viability ([2]; first compound 0.253 µM): 1.1
relative viability ([2]; first compound 0.8 µM): 0.971
relative viability ([2]; first compound 2.53 µM): 1.04
relative viability ([2]; first compound 8 µM): 1.04
relative viability ([3]; first compound 0.08 µM): 0.971
relative viability ([3]; first compound 0.253 µM): 1.12
relative viability ([3]; first compound 0.8 µM): 1
relative viability ([3]; first compound 2.53 µM): 1.05
relative viability ([3]; first compound 8 µM): 1.28
relative viability ([4]; first compound 0.08 µM): 0.53
relative viability ([4]; first compound 0.253 µM): 0.731
relative viability ([4]; first compound 0.8 µM): 0.725
relative viability ([4]; first compound 2.53 µM): 0.498
relative viability ([4]; first compound 8 µM): 1.1
relative viability ([5]; first compound 0.08 µM): 0.943
relative viability ([5]; first compound 0.253 µM): 0.921
relative viability ([5]; first compound 0.8 µM): 0.997
relative viability ([5]; first compound 2.53 µM): 0.8
relative viability ([5]; first compound 8 µM): 0.967
relative viability ([6]; first compound 0.08 µM): 0.727
relative viability ([6]; first compound 0.253 µM): 0.718
relative viability ([6]; first compound 0.8 µM): 0.707
relative viability ([6]; first compound 2.53 µM): 0.702
relative viability ([6]; first compound 8 µM): 0.776
relative viability ([7]; first compound 0.08 µM): 1.08
relative viability ([7]; first compound 0.253 µM): 1.16
relative viability ([7]; first compound 0.8 µM): 1.04
relative viability ([7]; first compound 2.53 µM): 1.06
relative viability ([7]; first compound 8 µM): 0.98
relative viability ([8]; first compound 0.08 µM): 1.09
relative viability ([8]; first compound 0.253 µM): 1.18
relative viability ([8]; first compound 0.8 µM): 1.24
relative viability ([8]; first compound 2.53 µM): 0.899
relative viability ([8]; first compound 8 µM): 1.07
relative viability ([9]; first compound 0.08 µM): 0.686
relative viability ([9]; first compound 0.253 µM): 0.802
relative viability ([9]; first compound 0.8 µM): 0.9
relative viability ([9]; first compound 2.53 µM): 0.872
relative viability ([9]; first compound 8 µM): 0.672
relative viability ([10]; first compound 0.253 µM): 1.64
relative viability ([10]; first compound 0.8 µM): 0.987
relative viability ([10]; first compound 2.53 µM): 0.896
relative viability ([10]; first compound 8 µM): 1.19
relative viability ([11]; first compound 0.08 µM): 0.838
relative viability ([11]; first compound 0.253 µM): 1.01
relative viability ([11]; first compound 0.8 µM): 0.89
relative viability ([11]; first compound 2.53 µM): 0.871
relative viability ([11]; first compound 8 µM): 0.99
relative viability ([12]; first compound 0.08 µM): 1.02
relative viability ([12]; first compound 0.253 µM): 1.02
relative viability ([12]; first compound 0.8 µM): 1.05
relative viability ([12]; first compound 2.53 µM): 0.957
relative viability ([12]; first compound 8 µM): 1.03
relative viability ([13]; first compound 0.08 µM): 0.982
relative viability ([13]; first compound 0.253 µM): 0.966
relative viability ([13]; first compound 0.8 µM): 1.12
relative viability ([13]; first compound 2.53 µM): 0.927
relative viability ([13]; first compound 8 µM): 1.01
relative viability ([14]; first compound 0.08 µM): 1.17
relative viability ([14]; first compound 0.253 µM): 1.19
relative viability ([14]; first compound 0.8 µM): 1.31
relative viability ([14]; first compound 2.53 µM): 1.12
relative viability ([14]; first compound 8 µM): 1.26
relative viability ([15]; first compound 0.08 µM): 0.831
relative viability ([15]; first compound 0.253 µM): 0.887
relative viability ([15]; first compound 0.8 µM): 0.832
relative viability ([15]; first compound 2.53 µM): 0.759
relative viability ([15]; first compound 8 µM): 0.853
relative viability ([16]; first compound 0.08 µM): 1.06
relative viability ([16]; first compound 0.253 µM): 1.09
relative viability ([16]; first compound 0.8 µM): 0.949
relative viability ([16]; first compound 2.53 µM): 1.02
relative viability ([16]; first compound 8 µM): 1.12
relative viability ([17]; first compound 0.08 µM): 1.15
relative viability ([17]; first compound 0.253 µM): 1.04
relative viability ([17]; first compound 0.8 µM): 1.13
relative viability ([17]; first compound 2.53 µM): 0.939
relative viability ([17]; first compound 8 µM): 0.958
relative viability ([18]; first compound 0.08 µM): 0.812
relative viability ([18]; first compound 0.253 µM): 1.04
relative viability ([18]; first compound 0.8 µM): 1.14
relative viability ([18]; first compound 2.53 µM): 0.905
relative viability ([18]; first compound 8 µM): 0.849
relative viability ([19]; first compound 0.08 µM): 1.03
relative viability ([19]; first compound 0.253 µM): 0.949
relative viability ([19]; first compound 0.8 µM): 0.937
relative viability ([19]; first compound 2.53 µM): 0.925
relative viability ([19]; first compound 8 µM): 1.02

COc1nc(C)cnc1NS(=O)(=O)c1cccnc1-c1ccc(-c2nnco2)cc1 [Zibotentan] + C[C@@H](Oc1cc(-c2cnn(C3CCNCC3)c2)cnc1N)c1c(Cl)ccc(F)c1Cl [Crizotinib] (partner 1 µM)
relative viability ([1]; first compound 0.08 µM): 0.803
relative viability ([1]; first compound 0.253 µM): 0.724
relative viability ([1]; first compound 0.8 µM): 0.989
relative viability ([1]; first compound 2.53 µM): 1.02
relative viability ([2]; first compound 0.08 µM): 0.875
relative viability ([2]; first compound 0.253 µM): 0.733
relative viability ([2]; first compound 0.8 µM): 0.848
relative viability ([2]; first compound 2.53 µM): 1.03
relative viability ([3]; first compound 0.08 µM): 1.03
relative viability ([3]; first compound 0.253 µM): 0.993
relative viability ([3]; first compound 0.8 µM): 1.02
relative viability ([3]; first compound 2.53 µM): 1.18
relative viability ([4]; first compound 0.08 µM): 0.774
relative viability ([4]; first compound 0.253 µM): 0.572
relative viability ([4]; first compound 0.8 µM): 0.475
relative viability ([4]; first compound 2.53 µM): 0.499
relative viability ([5]; first compound 0.08 µM): 0.944
relative viability ([5]; first compound 0.253 µM): 0.955
relative viability ([5]; first compound 0.8 µM): 0.946
relative viability ([5]; first compound 2.53 µM): 0.987
relative viability ([6]; first compound 0.08 µM): 0.742
relative viability ([6]; first compound 0.253 µM): 0.717
relative viability ([6]; first compound 0.8 µM): 0.758
relative viability ([6]; first compound 2.53 µM): 0.729
relative viability ([7]; first compound 0.08 µM): 1.07
relative viability ([7]; first compound 0.253 µM): 1.07
relative viability ([7]; first compound 0.8 µM): 1.12
relative viability ([7]; first compound 2.53 µM): 0.974
relative viability ([8]; first compound 0.08 µM): 0.924
relative viability ([8]; first compound 0.253 µM): 0.853
relative viability ([8]; first compound 0.8 µM): 0.977
relative viability ([8]; first compound 2.53 µM): 0.989
relative viability ([9]; first compound 0.08 µM): 0.808
relative viability ([9]; first compound 0.253 µM): 0.699
relative viability ([9]; first compound 0.8 µM): 0.724
relative viability ([9]; first compound 2.53 µM): 0.724
relative viability ([10]; first compound 0.08 µM): 1.19
relative viability ([10]; first compound 0.253 µM): 0.949
relative viability ([10]; first compound 0.8 µM): 0.884
relative viability ([10]; first compound 2.53 µM): 0.99
relative viability ([11]; first compound 0.253 µM): 0.915
relative viability ([11]; first compound 0.8 µM): 0.73
relative viability ([11]; first compound 2.53 µM): 1.04
relative viability ([12]; first compound 0.08 µM): 1.05
relative viability ([12]; first compound 0.253 µM): 0.947
relative viability ([12]; first compound 0.8 µM): 0.995
relative viability ([12]; first compound 2.53 µM): 1.06
relative viability ([13]; first compound 0.08 µM): 0.881
relative viability ([13]; first compound 0.253 µM): 1.07
relative viability ([13]; first compound 0.8 µM): 0.984
relative viability ([13]; first compound 2.53 µM): 0.928
relative viability ([14]; first compound 0.08 µM): 1.29
relative viability ([14]; first compound 0.253 µM): 1.15
relative viability ([14]; first compound 0.8 µM): 1.2
relative viability ([14]; first compound 2.53 µM): 1.2
relative viability ([15]; first compound 0.08 µM): 0.907
relative viability ([15]; first compound 0.253 µM): 0.882
relative viability ([15]; first compound 0.8 µM): 0.789
relative viability ([15]; first compound 2.53 µM): 0.881
relative viability ([16]; first compound 0.08 µM): 1.04
relative viability ([16]; first compound 0.253 µM): 1.06
relative viability ([16]; first compound 0.8 µM): 1.18
relative viability ([16]; first compound 2.53 µM): 1.23
relative viability ([17]; first compound 0.08 µM): 0.971
relative viability ([17]; first compound 0.8 µM): 1.04
relative viability ([17]; first compound 2.53 µM): 0.853
relative viability ([18]; first compound 0.08 µM): 0.879
relative viability ([18]; first compound 0.253 µM): 0.841
relative viability ([18]; first compound 0.8 µM): 0.928
relative viability ([18]; first compound 2.53 µM): 1.05
relative viability ([19]; first compound 0.08 µM): 1.12
relative viability ([19]; first compound 0.253 µM): 1.02
relative viability ([19]; first compound 0.8 µM): 0.969
relative viability ([19]; first compound 2.53 µM): 0.932
